Reference: paper PMC8586955, “Interaction Study between ESIPT Fluorescent Lipophile-Based Benzazoles and BSA” (Molecules, 2021)

Target: T1, bovine serum albumin (BSA) (Bos taurus, UniProt P02769)
T1 construct: gene ALB
Assay: BSA intrinsic fluorescence quenching titration, ex […] nm
Assay type: binding
Settings: double-log; PBS pH 7.2, 25 °C, BSA 11 µM, ligand 0-20 µM

T1 sequence (P02769 25-607): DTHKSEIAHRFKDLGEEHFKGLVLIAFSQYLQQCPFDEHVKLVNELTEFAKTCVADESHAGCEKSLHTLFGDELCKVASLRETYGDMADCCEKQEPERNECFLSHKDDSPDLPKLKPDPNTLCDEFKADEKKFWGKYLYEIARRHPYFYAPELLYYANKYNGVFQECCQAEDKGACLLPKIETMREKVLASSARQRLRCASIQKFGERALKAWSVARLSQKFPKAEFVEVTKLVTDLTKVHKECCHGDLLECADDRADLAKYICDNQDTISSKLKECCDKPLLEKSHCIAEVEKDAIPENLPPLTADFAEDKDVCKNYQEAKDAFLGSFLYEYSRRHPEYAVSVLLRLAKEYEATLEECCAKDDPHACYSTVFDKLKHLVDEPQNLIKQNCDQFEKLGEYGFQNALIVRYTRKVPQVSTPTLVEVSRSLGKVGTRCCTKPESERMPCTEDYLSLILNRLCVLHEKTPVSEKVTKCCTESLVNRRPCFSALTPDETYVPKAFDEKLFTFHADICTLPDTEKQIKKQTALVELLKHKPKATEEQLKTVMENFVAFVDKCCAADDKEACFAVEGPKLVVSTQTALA

SMILES	KA (×10^4 M^-1)
CCCCNCc1cc(C)c(O)c(-c2nc3ccccc3o2)c1 [compound 12, benzazole 12]	0.61 ×10^4 M^−1
CCCCCCCCCCCCCCCCCCNCc1cc(C)c(O)c(-c2nc3ccccc3s2)c1 [compound 17, benzazole 17]	0.69 ×10^4 M^−1
CCCCCCCCCCCCNCc1cc(C)c(O)c(-c2nc3ccccc3o2)c1 [compound 13, benzazole 13]	0.74 ×10^4 M^−1
CCCCNCc1cc(C)c(O)c(-c2nc3ccccc3s2)c1 [compound 15, benzazole 15]	0.73 ×10^4 M^−1
CCCCCCCCCCCCCCCCCCNCc1cc(C)c(O)c(-c2nc3ccccc3o2)c1 [compound 14, benzazole 14]	0.59 ×10^4 M^−1
CCCCCCCCCCCCNCc1cc(C)c(O)c(-c2nc3ccccc3s2)c1 [compound 16, benzazole 16]	0.79 ×10^4 M^−1
